pIC50: −log10 of the molar value.
Test system: not given
Experiment: not given
Details: not given

Compound	melting point
CN1CCn2c1nc(C(=O)NCc1ccc(F)cc1)c(O)c2=O [Example 1, N-(4Fluorobenzyl)-6-hydroxy-1-methyl-5-oxo-1,2,3,5-tetrahydroimidazo[1,2-a]pyrimidine-7-carboxamide]	212 °C
Cc1cc(CNC(=O)c2nc3n(c(=O)c2O)CCN3C)ccc1F [Example 2, N-(4-Fluoro-3-methylbenzyl)-6-hydroxy-1-methyl-5-oxo-1,2,3,5-tetrahydroimidazo[1,2-a]pyrimidine-7-carboxamide]	187 to 189 °C
CNC(=O)c1cc(F)ccc1CNC(=O)c1nc2n(c(=O)c1O)CCN2C(C)C [Example 6, N-(4-Fluoro-2-(methylcarbamoyl)benzyl)-6-hydroxy-1-isopropyl-5-oxo-1,2,3,5-tetrahydroimidazo[1,2-a]pyrimidine-7-carboxamide]	205 °C (dec.)
Cc1ncnn1-c1cc(F)ccc1CNC(=O)c1nc2n(c(=O)c1O)CCN2C(C)C [Example 10, N-(4-Fluoro-2-(5-methyl-1H-1,2,4-triazol-1-yl)benzyl)-6-hydroxy-1-isopropyl-5-oxo-1,2,3,5-tetrahydroimidazo[1,2-a]pyrimidine-7-carboxamide]	212 °C
CCCCN1CCn2c1nc(C(=O)NCc1ccc(F)cc1C(=O)NC)c(O)c2=O [Example 13, N-(4-Fluoro-2-(methylcarbamoyl)benzyl)-1-butyl-6-hydroxy-5-oxo-1,2,3,5-tetrahydroimidazo[1,2-a]pyrimidine-7-carboxamide]	175 to 177 °C
CCCCN1CCn2c1nc(C(=O)NCc1ccc(F)cc1-n1cnc(C)n1)c(O)c2=O [Example 15, N-(4-Fluoro-2-(3-methyl-1H-1,2,4-triazol-1-yl)benzyl)-1-butyl-6-hydroxy-5-oxo-1,2,3,5-tetrahydroimidazo[1,2-a]pyrimidine-7-carboxamide]	214 °C
O=C(NCc1ccc(F)cc1)c1nc2n(c(=O)c1O)CCN2Cc1ccccc1 [Example 16, N-(4-Fluorobenzyl)-1-benzyl-6-hydroxy-5-oxo-1,2,3,5-tetrahydroimidazo[1,2-a]pyrimidine-7-carboxamide]	225 °C

Molecular target: T1, HIV-integrase (Human immunodeficiency virus type 1 group M subtype B, UniProt P12497)
T1 construct: Recombinant integrase (0.26 ng) was incubated with the beads
Experiment: HIV-Integrase Inhibition Activity (SPA strand transfer assay)
Assay type: biochemical
Details: recombinant integrase, biotin labeled substrate DNA on SPA beads, P33 labeled target DNA; read-out: Activity (IC50 class, HIV-integrase inhibition)
Method: HIV-Integrase Inhibition Activity. To evaluate in-vitro activity against HIV-integrase, 5 pmole of biotin labeled substrate DNA was bound to 100 μg of Streptavidin coated PVT SPA beads (Amersham Pharmacia Biotech). Recombinant integrase (0.26 ng) was incubated with the beads for 90 min at 37° C. Unbound enzyme was removed by washing the complex followed by addition of inhibitors and 0.1 fmol of P33 labeled target DNA. The reaction was stopped by adding EDTA to a final concentration of 10 mM. Samples were counted in TopCountNXT (Packard) and the CPM was used as a measure of integration. The reaction condition was as described in A. Engelman and R. Craigie, J. Virol. 69, 5908-5911 (1995). The sequences of substrate and target DNA were described in Nucleic Acid Research 22,1121-1122 (1994). Activity equal to A refers to a compound having IC50=0.005 to 0.010 μM while B and C denote compounds having IC50=0.010 to 0.030 μM and IC50>0.030 μM respectively.

Compound	pIC50
CN1CCn2c1nc(C(=O)NCc1ccc(F)cc1)c(O)c2=O [Example 1, N-(4Fluorobenzyl)-6-hydroxy-1-methyl-5-oxo-1,2,3,5-tetrahydroimidazo[1,2-a]pyrimidine-7-carboxamide]	7.52 to 8.00
Cc1cc(CNC(=O)c2nc3n(c(=O)c2O)CCN3C)ccc1F [Example 2, N-(4-Fluoro-3-methylbenzyl)-6-hydroxy-1-methyl-5-oxo-1,2,3,5-tetrahydroimidazo[1,2-a]pyrimidine-7-carboxamide]	7.52 to 8.00
CNC(=O)c1cc(F)ccc1CNC(=O)c1nc2n(c(=O)c1O)CCN2C [Example 3, N-(4-Fluoro-2-(methylcarbamoyl)benzyl)-6-hydroxy-1-methyl-5-oxo-1,2,3,5-tetrahydroimidazo[1,2-a]pyrimidine-7-carboxamide]	7.52 to 8.00
CC(C)N1CCn2c1nc(C(=O)NCc1ccc(F)cc1)c(O)c2=O [Example 4, N-(4-Fluorobenzyl)-6-hydroxy-1-isopropyl-5-oxo-1,2,3,5-tetrahydroimidazo[1,2-a]pyrimidine-7-carboxamide]	7.52 to 8.00
Cc1cc(CNC(=O)c2nc3n(c(=O)c2O)CCN3C(C)C)ccc1F [Example 5, N-(4-Fluoro-3-methylbenzyl)-6-hydroxy-1-isopropyl-5-oxo-1,2,3,5-tetrahydroimidazo[1,2-a]pyrimidine-7-carboxamide]	7.52 to 8.00
CNC(=O)c1cc(F)ccc1CNC(=O)c1nc2n(c(=O)c1O)CCN2C(C)C [Example 6, N-(4-Fluoro-2-(methylcarbamoyl)benzyl)-6-hydroxy-1-isopropyl-5-oxo-1,2,3,5-tetrahydroimidazo[1,2-a]pyrimidine-7-carboxamide]	7.52 to 8.00
CC(C)N1CCn2c1nc(C(=O)NCc1ccc(F)cc1-n1cncn1)c(O)c2=O [Example 7, N-(4-Fluoro-2-(1H-1,2,4-triazol-1-yl)benzyl)-6-hydroxy-1-isopropyl-5-oxo-1,2,3,5-tetrahydroimidazo[1,2-a]pyrimidine-7-carboxamide]	7.52 to 8.00
CC(C)N1CCn2c1nc(C(=O)NCc1ccc(F)cc1S(=O)(=O)N(C)C)c(O)c2=O [Example 8, N-(4-Fluoro-2-(N,N-dimethylsulfamoyl)benzyl)-6-hydroxy-1-isopropyl-5-oxo-1,2,3,5-tetrahydroimidazo[1,2-a]pyrimidine-7-carboxamide]	8.00 to 8.30
Cc1ncn(-c2cc(F)ccc2CNC(=O)c2nc3n(c(=O)c2O)CCN3C(C)C)n1 [Example 9, N-(4-Fluoro-2-(3-methyl-1H-1,2,4-triazol-1-yl)benzyl)-6-hydroxy-1-isopropyl-5-oxo-1,2,3,5-tetrahydroimidazo[1,2-a]pyrimidine-7-carboxamide]	7.52 to 8.00
Cc1ncnn1-c1cc(F)ccc1CNC(=O)c1nc2n(c(=O)c1O)CCN2C(C)C [Example 10, N-(4-Fluoro-2-(5-methyl-1H-1,2,4-triazol-1-yl)benzyl)-6-hydroxy-1-isopropyl-5-oxo-1,2,3,5-tetrahydroimidazo[1,2-a]pyrimidine-7-carboxamide]	< 7.52
CCCCN1CCn2c1nc(C(=O)NCc1ccc(F)cc1)c(O)c2=O [Example 11, N-(4-Fluorobenzyl)-1-butyl-6-hydroxy-5-oxo-1,2,3,5-tetrahydroimidazo[1,2-a]pyrimidine-7-carboxamide]	8.00 to 8.30
CCCCN1CCn2c1nc(C(=O)NCc1ccc(F)c(C)c1)c(O)c2=O [Example 12, N-(4-Fluoro-3-methylbenzyl)-1-butyl-6-hydroxy-5-oxo-1,2,3,5-tetrahydroimidazo[1,2-a]pyrimidine-7-carboxamide]	7.52 to 8.00
CCCCN1CCn2c1nc(C(=O)NCc1ccc(F)cc1C(=O)NC)c(O)c2=O [Example 13, N-(4-Fluoro-2-(methylcarbamoyl)benzyl)-1-butyl-6-hydroxy-5-oxo-1,2,3,5-tetrahydroimidazo[1,2-a]pyrimidine-7-carboxamide]	7.52 to 8.00
CCCCN1CCn2c1nc(C(=O)NCc1ccc(F)cc1S(=O)(=O)N(C)C)c(O)c2=O [Example 14, N-(4-Fluoro-2-(N,N-dimethylsulfamoyl)benzyl)-1-butyl-6-hydroxy-5-oxo-1,2,3,5-tetrahydroimidazo[1,2-a]pyrimidine-7-carboxamide]	7.52 to 8.00
CCCCN1CCn2c1nc(C(=O)NCc1ccc(F)cc1-n1cnc(C)n1)c(O)c2=O [Example 15, N-(4-Fluoro-2-(3-methyl-1H-1,2,4-triazol-1-yl)benzyl)-1-butyl-6-hydroxy-5-oxo-1,2,3,5-tetrahydroimidazo[1,2-a]pyrimidine-7-carboxamide]	8.00 to 8.30
O=C(NCc1ccc(F)cc1)c1nc2n(c(=O)c1O)CCN2Cc1ccccc1 [Example 16, N-(4-Fluorobenzyl)-1-benzyl-6-hydroxy-5-oxo-1,2,3,5-tetrahydroimidazo[1,2-a]pyrimidine-7-carboxamide]	< 7.52
Cc1cc(CNC(=O)c2nc3n(c(=O)c2O)CCN3Cc2ccccc2)ccc1F [Example 17, N-(4-Fluoro-3-methylbenzyl)-1-benzyl-6-hydroxy-5-oxo-1,2,3,5-tetrahydroimidazo[1,2-a]pyrimidine-7-carboxamide]	7.52 to 8.00
O=C(NCc1ccc(F)cc1)c1nc2n(c(=O)c1O)CCN2c1ccccc1 [Example 20, N-(4-Fluorobenzyl)-6-hydroxy-5-oxo-1-phenyl-1,2,3,5-tetrahydroimidazo[1,2-a]pyrimidine-7-carboxamide]	8.00 to 8.30

Compound	pIC50
Cc1cc(CNC(=O)c2nc3n(c(=O)c2O)CCN3c2ccccc2)ccc1F [Example 21, N-(4-Fluoro-3-methylbenzyl)-6-hydroxy-5-oxo-1-phenyl-1,2,3,5-tetrahydroimidazo[1,2-a]pyrimidine-7-carboxamide]	8.00 to 8.30
CNC(=O)c1cc(F)ccc1CNC(=O)c1nc2n(c(=O)c1O)CCN2c1ccccc1 [Example 22, N-(4-Fluoro-2-(methylcarbamoyl)benzyl)-6-hydroxy-5-oxo-1-phenyl-1,2,3,5-tetrahydroimidazo[1,2-a]pyrimidine-7-carboxamide]	7.52 to 8.00
O=C(NCc1ccc(F)cc1-n1cncn1)c1nc2n(c(=O)c1O)CCN2c1ccccc1 [Example 23, N-(4-Fluoro-2-(1H-1,2,4-triazol-1-yl)benzyl)-6-hydroxy-5-oxo-1-phenyl-1,2,3,5-tetrahydroimidazo[1,2-a]pyrimidine-7-carboxamide]	8.00 to 8.30
Cc1ncn(-c2cc(F)ccc2CNC(=O)c2nc3n(c(=O)c2O)CCN3c2ccccc2)n1 [Example 24, N-(4-Fluoro-2-(3-methyl-1H-1,2,4-triazol-1-yl)benzyl)-6-hydroxy-5-oxo-1-phenyl-1,2,3,5-tetrahydroimidazo[1,2-a]pyrimidine-7-carboxamide]	8.00 to 8.30
Cc1ncnn1-c1cc(F)ccc1CNC(=O)c1nc2n(c(=O)c1O)CCN2c1ccccc1 [Example 25, N-(4-Fluoro-2-(5-methyl-1H-1,2,4-triazol-1-yl)benzyl)-6-hydroxy-5-oxo-1-phenyl-1,2,3,5-tetrahydroimidazo[1,2-a]pyrimidine-7-carboxamide]	7.52 to 8.00
CN(C)S(=O)(=O)c1cc(F)ccc1CNC(=O)c1nc2n(c(=O)c1O)CCN2c1ccccc1 [Example 26, N-(4-Fluoro-2-(N,N-dimethylsulfamoyl)benzyl)-6-hydroxy-5-oxo-1-phenyl-1,2,3,5-tetrahydroimidazo[1,2-a]pyrimidine-7-carboxamide]	7.52 to 8.00
O=C(NCc1ccc(F)cc1N1CCCC1=O)c1nc2n(c(=O)c1O)CCN2c1ccccc1 [Example 27, N-(4-Fluoro-2-(2-oxopyrrolidin-1-yl)benzyl)-6-hydroxy-5-oxo-1-phenyl-1,2,3,5-tetrahydroimidazo[1,2-a]pyrimidine-7-carboxamide]	7.52 to 8.00
O=C(NCc1ccc(F)cc1N1CCC1=O)c1nc2n(c(=O)c1O)CCN2c1ccccc1 [Example 28, N-(4-Fluoro-2-(2-oxoazetidin-1-yl)benzyl)-6-hydroxy-5-oxo-1-phenyl-1,2,3,5-tetrahydroimidazo[1,2-a]pyrimidine-7-carboxamide]	8.00 to 8.30
O=C(NCc1ccc(F)cc1)c1nc2n(c(=O)c1O)CCN2C1CCCCC1 [Example 32]	8.00 to 8.30
Cc1cc(CNC(=O)c2nc3n(c(=O)c2O)CCN3C2CCCCC2)ccc1F [Example 33]	8.00 to 8.30
O=C(NCc1ccc(F)cc1-n1cncn1)c1nc2n(c(=O)c1O)CCN2C1CCCCC1 [Example 34]	8.00 to 8.30
CN(C)S(=O)(=O)c1cc(F)ccc1CNC(=O)c1nc2n(c(=O)c1O)CCN2C1CCCCC1 [Example 35]	7.52 to 8.00
CNC(=O)c1cc(F)ccc1CNC(=O)c1nc2n(c(=O)c1O)CCN2CCOC [Example 36]	7.52 to 8.00
COCCN1CCn2c1nc(C(=O)NCc1ccc(F)cc1-n1cncn1)c(O)c2=O [Example 37]	7.52 to 8.00
COCCN1CCn2c1nc(C(=O)NCc1ccc(F)cc1S(=O)(=O)N(C)C)c(O)c2=O [Example 38]	< 7.52
COCCN1CCn2c1nc(C(=O)NCc1ccc(F)cc1-n1cnc(C)n1)c(O)c2=O [Example 39]	< 7.52
CS(=O)(=O)c1cc(F)ccc1CNC(=O)c1nc2n(c(=O)c1O)CCN2c1ccccc1 [Example 40]	8.00 to 8.30
CCCCN1CCn2c1nc(C(=O)NCc1ccc(F)cc1-n1cncn1)c(O)c2=O [Example 41]	7.52 to 8.00
